Reference: US7402696B2, “Benzene compounds” (Ajinomoto Co., Inc., priority 2004, dated 2008)

molecular target: T1, ACC (acetyl CoA carboxylase) purified from liver of male SD rat (Rattus norvegicus, UniProt P11497); assay: Measurement of ACC inhibition activity ([14C]-NaHCO3 incorporation); format: biochemical; settings: ACC inhibition activity rate at 1 μM; Table 2-III, Mode 3 acetylene/oxadiazole/thiazole compounds (numbers = x-III); read-out: ACC Inhibition (%)
T1 construct: applied to a monomeric avidin sepharose column, and washed with buffer B. The ACC was eluted with buffer B containing 2 mM d-biotin; from tissue; host or cells: liver of male SD rat
Method: A male SD rat was deprived of food for two days and then fed a high-sucrose diet (component) for two days. While anesthetized with ether, the descending vena cava was cut upon, the animal was bled, and the liver was rapidly recovered. In an ice-cooled buffer solution A (225 mM mannitol, 75 mM sucrose, 10 mM Tris-HCl (pH 7.5), 0.05 mM EDTA, 5 mM potassium citrate, 2.5 mM MgCl2, 10 mg/L pepstatin A, 10 mg/L leupeptin, 1 mM PMSF), the liver was homogenized with a polytone homogenizer. A quantity of buffer A nine times the weight of the liver was added, the mixture was centrifuged for 10 minutes at 1,000 g, the supernatant was recovered, and the supernatant was centrifuged for another 10 minutes at 17,000 g.
Ammonium sulfate was added to 35 percent saturation to the obtained supernatant. The mixture was stirred for 45 minutes and then centrifuged for 10 minutes at 17,000 g. Buffer solution B (100 mM Tris-HCl (pH 7.5), 500 mM NaCl, 1 mM EDTA, 0.1 mM DTT, 10 percent glycerol, 10 mg/L pepstatin A, 10 mg/L leupeptin, 0.5 mM PMSF) was added to the obtained precipitate and dissolved. The solution was then centrifuged for 20 minutes at 40,000 g. The supernatant was dialyzed overnight against buffer C (100 mM Tris-HCl (pH 7.5), 500 mM NaCl, 1 mM EDTA, 0.1 mM DTT, 5 percent glycerol).
The dialyzed supernatant was passed through a […], applied to a monomeric avidin sepharose column, and washed with buffer B. The ACC was eluted with buffer B containing 2 mM d-biotin.
(2 Measurement of ACC Inhibition Activity)
The compounds synthesized in the above-described embodiments were dissolved in DMSO and charged to glass vials. 250 μL of ACC-containing reaction solution (40 mM Tris-HCl (pH 7.5), 40 mM MgCl2, 40 mM sodium citrate, and 2 mM DTT) was added. The mixture was heated for 30 minutes at 37° C. in a thermostatic chamber and then cooled with ice. To reaction solution 1 was added 250 μL of reaction solution 2 containing [14C]—NaHCO3 (40 mM Tris-HCl (pH 7.5), 2 mM DTT, 8 mM ATP, 0.5 mM acetyl CoA) and the mixture was heated for 10 minutes at 37° C. 100 μL of 1N HCl was added to stop the reaction. Water in the reaction solution was removed with a centrifugal evaporator, a scintillator was added, the solid component was dissolved, and the 14C radioactivity was measured with a liquid scintillation counter. The ACC inhibition activity of each compound was calculated from the following equation and converted to the ACC inhibition activity rate (%) at 1 μM.
ACC inhibition rate (%)=(1−(a−c)/(b−c))×100 a. Radioactivity when test drug added b: Radioactivity when test drug not added c: Blank* *Reaction solution 1 to which 100 μL of 1N HCl was added before mixing reaction solution 1 and reaction solution 2

inhibition at 1 µM [%] | Compound
62 | O=C(O)c1ccccc1-c1nc(-c2ccc(-c3nc(-c4cc(C(F)(F)F)cc(C(F)(F)F)c4)cs3)cc2)cs1 [compound 1]
60 | O=C(O)c1ccccc1S(=O)(=O)Nc1ccc(C#Cc2cccc(C(F)(F)F)c2)cc1 [compound 9]
61 | O=C(O)c1ccccc1C(=O)Nc1ccc(C#Cc2cccc(C(F)(F)F)c2)cc1 [compound 10]

same assay, conditions: ACC inhibition activity rate at 1 μM; Table 3-I, Mode 1 quinoline compounds (numbers = x-I); read-out: ACC Inhibition (%)

inhibition at 1 µM [%] | Compound
53 | O=C(Nc1ccccc1C(=O)O)c1ccc2nc(-c3cc(C(F)(F)F)cc(C(F)(F)F)c3)ccc2c1 [compound 3]
78 | CCCCS(=O)(=O)NC(=O)c1ccccc1NC(=O)c1ccc2nc(-c3cc(C(F)(F)F)cc(C(F)(F)F)c3)ccc2c1 [compound 4]
72 | CCCCCC(=O)NS(=O)(=O)c1ccccc1NC(=O)c1ccc2nc(-c3cc(C(F)(F)F)cc(C(F)(F)F)c3)ccc2c1 [compound 7]

same assay, conditions: ACC inhibition activity rate at 1 μM; Table 3-II, Mode 2 benzimidazole compounds (numbers = x-II); read-out: ACC Inhibition (%)

inhibition at 1 µM [%] | Compound
50 | CCCCCC(=O)NS(=O)(=O)c1ccccc1NC(=O)c1ccc2c(c1)nc(-c1cc(C(F)(F)F)cc(C(F)(F)F)c1)n2CCC(C)C [compound 1]
92 | CCCCCC(=O)NS(=O)(=O)c1ccccc1NC(=O)c1ccc2c(c1)nc(-c1cc(C(F)(F)F)cc(C(F)(F)F)c1)n2-c1ccc(C(F)(F)F)cc1 [compound 2]
54 | CCCCCC(=O)NS(=O)(=O)c1ccccc1NC(=O)c1ccc2nc(-c3cccc(C(F)(F)F)c3)n(-c3ccccc3)c2c1 [compound 4]
89 | CC(C)(C)c1ccc(C(=O)NS(=O)(=O)c2ccccc2NC(=O)c2ccc3nc(-c4cccc(C(F)(F)F)c4)n(-c4ccccc4)c3c2)cc1 [compound 5]
57 | O=C(O)c1cccc(-c2noc(-c3ccc4c(c3)nc(-c3ccccc3)n4-c3ccc(C(F)(F)F)cc3)n2)c1 [compound 8]

same assay, conditions: ACC inhibition activity rate at 1 μM; Table 4-A, further compounds of Modes 2 and 3; read-out: ACC Inhibition (%)

inhibition at 1 µM [%] | Compound
72 | CC(C)CCn1c(-c2ccccc2)nc2cc(-c3nc(-c4cccc(C(=O)NS(=O)(=O)c5ccccc5)c4)no3)ccc21 [Compound 9-II]
96 | Nc1ccc(S(=O)(=O)NC(=O)c2cccc(-c3nc(-c4ccc(-c5csc(-c6ccccc6)n5)cc4)no3)c2)cc1 [Compound 132-III]
98 | O=C(NS(=O)(=O)c1ccc(-c2nc(-c3ccc(-c4csc(-c5ccccc5)n4)cc3)no2)cc1)c1ccccc1 [Compound 135-III]
94 | O=C(NS(=O)(=O)c1cccc(-c2nc(-c3ccc(-c4csc(-c5ccccc5)n4)cc3)no2)c1)c1ccccc1 [Compound 136-III]
96 | Nc1ccccc1S(=O)(=O)NC(=O)c1cccc(-c2nc(-c3ccc(-c4csc(-c5ccccc5)n4)cc3)no2)c1 [Compound 137-III]
100 | O=C(NS(=O)(=O)c1cccc(-c2nc(-c3ccc(-c4csc(-c5ccccc5)n4)cc3)no2)c1)c1ccc(-n2ccnc2)cc1 [Compound 138-III]
96 | Cn1cnc(S(=O)(=O)NC(=O)c2cccc(-c3nc(-c4ccc(-c5csc(-c6ccccc6)n5)cc4)no3)c2)c1 [Compound 139-III]
92 | COC(=O)c1ccc(S(=O)(=O)NC(=O)c2cccc(-c3nc(-c4ccc(-c5csc(-c6ccccc6)n5)cc4)no3)c2)cc1 [Compound 140-III]
100 | Cc1ccccc1S(=O)(=O)NC(=O)c1cccc(-c2nc(-c3ccc(-c4csc(-c5ccccc5)n4)cc3)no2)c1 [Compound 141-III]
100 | O=C(/C=C/c1ccccc1)NS(=O)(=O)c1cccc(-c2nc(-c3ccc(-c4csc(-c5ccccc5)n4)cc3)no2)c1 [Compound 142-III]
83 | O=C(NS(=O)(=O)c1cccc(-c2nc(-c3ccc(-c4csc(-c5ccccc5)n4)cc3)no2)c1)c1cccs1 [Compound 143-III]
97 | O=C(O)c1ccc(S(=O)(=O)NC(=O)c2cccc(-c3nc(-c4ccc(-c5csc(-c6ccccc6)n5)cc4)no3)c2)cc1 [Compound 144-III]
84 | O=C(NS(=O)(=O)c1cccc(-c2nc(-c3ccc(-c4csc(-c5ccccc5)n4)cc3)no2)c1)c1cccnc1 [Compound 145-III]
79 | COc1cccc(OC)c1C(=O)NS(=O)(=O)c1cccc(-c2nc(-c3ccc(-c4csc(-c5ccccc5)n4)cc3)no2)c1 [Compound 146-III]
65 | CCN(CC)c1ccc(-c2csc(-c3ccc(-c4csc(-c5cccc(S(=O)(=O)NC(=O)c6ccncc6)c5)n4)cc3)n2)cc1 [Compound 147-III]

same assay, conditions: ACC inhibition activity rate at 1 μM; Table 4-IV, Mode 4 benzenediamine compounds (numbers = x-IV); read-out: ACC Inhibition (%)

Compound | inhibition at 1 µM [%]
COC(=O)c1cccc(S(=O)(=O)NC(=O)c2cccc(-c3nc(-c4ccc(N(C)CCC(C)C)c(NCc5ccc(OCCO)cc5)c4)no3)c2)c1 [Compound 133-IV] | 99
CC(C)CCN(C)c1ccc(-c2noc(-c3cccc(C(=O)NS(=O)(=O)c4cccc(C(=O)O)c4)c3)n2)cc1NCc1ccc(OCCO)cc1 [Compound 134-IV] | 89
CC(C)CCN(C)c1ccc(-c2noc(-c3cccc(C(=O)NS(=O)(=O)c4cn(C)cn4)c3)n2)cc1NCc1ccc(OCCO)cc1 [Compound 137-IV] | 79
CC(C)CCN(C)c1ccc(C(=O)NC(CC(=O)NS(=O)(=O)c2ccc(C(=O)O)cc2)C2CCCCC2)cc1NCc1ccccc1 (centres unmarked) [Compound 138-IV] | 63
CC(C)CCN(C)c1ccc(-c2noc(-c3cccc(C(=O)NS(=O)(=O)c4cccc(C(=O)O)c4)c3)n2)cc1N(C)Cc1ccc(OCCO)cc1 [Compound 139-IV] | 100
CC(C)CCN(C)c1ccc(-c2noc(-c3cccc(C(=O)NS(=O)(=O)c4cn(C)cn4)c3)n2)cc1N(C)Cc1ccc(OCCO)cc1 [Compound 142-IV] | 93
CC(C)CCN(C)c1ccc(C(=O)N[C@H]2CCCC[C@H]2C(=O)NS(=O)(=O)c2ccccc2)cc1NCc1ccccc1 [Compound 144-IV] | 94
Cc1ccccc1S(=O)(=O)NC(=O)[C@@H]1CCCC[C@H]1NC(=O)c1ccc(N(C)CCC(C)C)c(NCc2ccccc2)c1 [Compound 145-IV] | 57
Cc1ccccc1S(=O)(=O)NC(=O)[C@@H]1CCCC[C@@H]1NC(=O)c1ccc(N(C)CCC(C)C)c(NCc2ccccc2)c1 [Compound 146-IV] | 72

Results, then the molecule that gave them:

inhibition at 1 µM [%] | Compound
68 | CC(C)CCN(C)c1ccc(C(=O)NC(CC(=O)NS(=O)(=O)c2cn(C)cn2)C2CCCCC2)cc1NCc1ccccc1 (centres unmarked) [Compound 147-IV]
63 | CC(C)CCN(C)c1ccc(C(=O)NC(CC(=O)NS(=O)(=O)c2cn(C)cn2)C2CCCCC2)cc1N(C)Cc1ccccc1 (centres unmarked) [Compound 148-IV]
86 | Cc1ccccc1S(=O)(=O)NC(=O)CC(NC(=O)c1ccc(N(C)CCC(C)C)c(N(C)CCc2ccccc2)c1)C1CCCCC1 (centres unmarked) [Compound 153-IV]
69 | CN(c1ccc(C(=O)NC(CC(=O)NS(=O)(=O)c2ccccc2)C2CCCCC2)cc1NCCc1ccccc1)C1CC1 (centres unmarked) [Compound 157-IV]
65 | CN(c1ccc(C(=O)NC(CC(=O)NS(=O)(=O)c2ccccc2)C2CCCCC2)cc1NCCOCc1ccccc1)C1CC1 (centres unmarked) [Compound 158-IV]
71 | CC(C)CCN(C)c1ccc(C(=O)NC(CC(=O)NS(=O)(=O)c2cn(C)cn2)C2CCCCC2)cc1NCC1CCCCC1 (centres unmarked) [Compound 161-IV]
85 | CC(C)CCN(C)c1ccc(C(=O)NC(CC(=O)NS(=O)(=O)c2cn(C)cn2)C2CCCCC2)cc1NCCc1ccccc1 (centres unmarked) [Compound 162-IV]
50 | CCCCCC(=O)NS(=O)(=O)c1ccccc1NC(=O)c1ccc(Nc2c(F)c(F)c(C(F)(F)F)c(F)c2F)c([N+](=O)[O-])c1 [compound 8]

same assay, conditions: read-out: ACC Inhibition (%)

Compound | inhibition at 1 µM [%]
CCOP(=O)(/C=C/c1ccc(CNc2cc(-c3noc(-c4cccc(C(=O)NS(=O)(=O)c5ccccc5C)c4)n3)ccc2N(C)CCC(C)C)cc1)OCC [Compound 140-IV] | 100
